Values after ≈ are worked out from the molar mass of the structure shown.
Legend:
[1] = test system: Clostridioides difficile ATCC 43255; assay: MIC determination using broth microdilution method, anaerobic bacteria; assay type: cell-based; details: for MIC: ATCC43255, Clostridioides difficile ATCC 43255, broth microdilution, anaerobic, 37° C., 48 h; for inhibitory effect on Clostridioides difficile (ATCC 43255), in words: comment on Table 1
Protocol: 0.10 g of sterile cycloserine and 3.20 mg of sterile cefoxitin (filtered by a filter membrane and sterilized) were added to every 200 mL, mixed well, and poured into a sterile petri dish for later use.
S3, culture of Clostridioides difficile strain: 1) the strain stored at −80° C. was resuscitated in an anaerobic glove box with a cycloserine-cefoxitin-fructose agar medium plate, and statically cultured at 37° C. in a constant-temperature incubator for 48 h; • 2) single colonies were picked, and statically cultured in the brain heart infusion broth medium overnight at 37° C. in the constant-temperature incubator; and • 3) the bacterial solution that was statically cultured overnight was transferred into the anaerobic glove box with the brain heart infusion broth medium at a ratio of 1:100, and cultured for 3-4 h until the OD600 was between 0.6 and 0.8; and during this process, 5 g/L of yeast extract solution was added to increase a strain concentration.
(§1) The culture process of the strain was operated in the anaerobic glove box. After the operation was completed, the strain was well sealed with an anaerobic bag or an anaerobic box, taken out and then cultured in the constant-temperature incubator.

[2] = test system: Bacteroides fragilis ATCC 25285; assay: as above; assay type: cell-based; details: ATCC25285; Bacteroides fragilis ATCC 25285; broth microdilution, anaerobic, 37° C., 48 h; read-out: MIC
Protocol: as §1

[3] = test system: Porphyromonas gingivalis ATCC 33277; assay: as above; assay type: cell-based; details: ATCC33277; Porphyromonas gingivalis ATCC 33277; broth microdilution, anaerobic, 37° C., 48 h; read-out: MIC
Protocol: S5, Culture of Porphyromonas gingivalis strain: • the strain stored at −80° C. was resuscitated in the anaerobic glove box with a Colombian blood agar plate, and statically cultured at 37° C. in the constant-temperature incubator for 5-7 days.
as §1

[4] = test system: H. pylori ATCC 26695; assay: MIC determination using broth microdilution method, Helicobacter pylori; assay type: cell-based; details: ATCC26695, H. pylori ATCC 26695(S), metronidazole-susceptible strain, read-out: MIC
Protocol: (§2) • 1) A frozen solution stored at −80° C. was taken out, and thawed at room temperature; 100 μL of bacterial solution was taken with a pipette, coated onto a Columbia blood agar plate (finished-product medium), put invertedly in a […] culture box, placed in a micro-aerobic gas production bag to achieve a micro-aerobic environment, and cultured at 37° C. for 2-3 days. • 2) A sterile inoculation ring was used to pick Helicobacter pylori single colonies (transparent water droplets) grown on the Colombian blood agar medium and inoculated in the above liquid medium; and cultured at 37° C. in a micro-aerobic environment for 3 days. • 3) A required concentration (absorbance) for the experiment was reached after culture, and the bacterial solution was taken for subsequent experiments.
(§3) The drug concentration at which bacteria ceased to grow or grew at the most significant reduction level was referred to as the MIC value.

[5] = test system: H. pylori ATCC 43504; assay: as above; assay type: cell-based; details: Helicobacter pylori, ATCC43504; H. pylori ATCC 43504(R), metronidazole-resistant strain; read-out: MIC
Protocol: as §2, §3

[6] = test system: H. pylori NCTC 11637; assay: as above; assay type: cell-based; details: Helicobacter pylori, NCTC11637; H. pylori NCTC 11637(R), metronidazole-resistant strain; read-out: MIC
Protocol: as §2, §3

[7] = test system: H. pylori Sydney strain SS1; assay: as above; assay type: cell-based; details: H. pylori Sydney strain SS1, read-out: MIC
Protocol: as §2, §3

[8] = test system: Clostridioides difficile infection (spores, 027 Type); assay: Clostridioides difficile infection (CDI) mouse model; assay type: in vivo, C57BL/6 mice; details: for number of surviving mice: 10 animals per group
Description: • 1) Experimental animals: C57BL/6, 4-6 weeks old, female.
In order to evaluate the efficacy of the compounds of the present application on Clostridioides difficile infection, an animal model of Clostridioides difficile infection was established, as shown in FIG. 1. […] On Day 0, the mice were administrated with 10^5 CFU/mL of spores by gavage; and on Days 1 and 2, the mice were administrated with 10^6 CFU/mL of spores by gavage. Starting from Day 3, the mice were given 7 days of drug treatment, and all mice were euthanized at the end of the experiment, except for the death of mice during the treatment.
Two of the conjugates, SCUT1-2 and SCUT1-6, with the optional in-vitro inhibitory activities were selected. […] The therapeutic effect of the conjugate of the present application in the treatment of Clostridioides difficile infection was evaluated.

[9] = test system: H. pylori ATCC 43504; details: H. pylori ATCC 43504(R); footnote a; cited from earlier work
[10] = test system: H. pylori ATCC 26695; details: H. pylori ATCC 26695(S); footnote b; cited from earlier work
[11] = Day 3 (before the administration), 50 mg/kg groups

| SMILES | MIC [1] [µg/mL] | MIC [2] [µg/mL] | MIC [3] [µg/mL] | MIC [4] [µg/mL] | MIC [5] [µg/mL] | MIC [6] [µg/mL] | MIC [7] [µg/mL] | number of mice with diarrhea [8, 11] | number of surviving mice [8, 11] | number of mice with diarrhea ([8]; Day 4, 50 mg/kg) | number of surviving mice ([8]; Day 4, 50 mg/kg) | number of mice with diarrhea ([8]; Day 5, 50 mg/kg) | number of surviving mice ([8]; Day 5, 50 mg/kg) | number of mice with diarrhea ([8]; Day 6, 50 mg/kg) | number of surviving mice ([8]; Day 6, 50 mg/kg) | number of mice with diarrhea ([8]; Day 7, 50 mg/kg) | number of surviving mice ([8]; Day 7, 50 mg/kg) | number of mice with diarrhea ([8]; Day 8, 50 mg/kg) | number of surviving mice ([8]; Day 8, 50 mg/kg) | number of mice with diarrhea ([8]; Day 9, 50 mg/kg) | other results |
| --- | --- | --- | --- | --- | --- | --- | --- | --- | --- | --- | --- | --- | --- | --- | --- | --- | --- | --- | --- | --- | --- |
| Cc1ncc([N+](=O)[O-])n1CCO [Metronidazole] | 1 to 2 (≈ 5.84 to 11.7 µM) | 0.25 to 2 (≈ 1.46 to 11.7 µM) | 2 (≈ 11.7 µM) | 4 (≈ 23.4 µM) | > 128 | > 128 | 8 (≈ 46.7 µM) | 9 number of mice | 10 number of mice | 8 number of mice | 9 number of mice | 5 number of mice | 8 number of mice | 3 number of mice | 8 number of mice | 3 number of mice | 8 number of mice | 3 number of mice | 8 number of mice | 3 number of mice | number of surviving mice ([8]; Day 9, 50 mg/kg): 8 number of mice; probability of survival ([8]; after 7 days of drug treatment, 50 mg/kg, Model group 44.44%): 80%; MIC reported in related literatures [9]: (64-256)^a μg/mL; MIC reported in related literatures [10]: (1-8)^b μg/mL |
| Cc1ncc([N+](=O)[O-])n1CCOC(=O)CC[C@@H](C)[C@H]1CC[C@H]2[C@@H]3[C@@H](O)C[C@@H]4C[C@H](O)CC[C@]4(C)[C@H]3CC[C@]12C [SCUT1-2] | 0.12 (≈ 0.22 µM) | 1 (≈ 1.83 µM) | 0.25 (≈ 0.458 µM) | 4 (≈ 7.33 µM) | 8 (≈ 14.7 µM) | 16 (≈ 29.3 µM) | 8 (≈ 14.7 µM) | 10 (10) number of mice | 10 (10) number of mice | 7 number of mice | 10 number of mice | 4 number of mice | 10 number of mice | 2 number of mice | 10 number of mice | 1 number of mice | 10 number of mice | 1 number of mice | 10 number of mice | 1 number of mice | inhibitory effect on Clostridioides difficile (ATCC 43255), in words [1]: particularly prominent; death of mice during the treatment ([8]; 50 mg/kg, 7 days of drug treatment): no mice died; therapeutic effect, in words ([8]; 50 mg/kg, compared with Metronidazole, UDCA and MIX groups): a good therapeutic effect; number of surviving mice ([8]; Day 9, 50 mg/kg): 10 number of mice; diarrhea rate ([8]; at the endpoint of treatment, 50 mg/kg, Model group 100%): 10% |
| Cc1ncc([N+](=O)[O-])n1CCOC(=O)CC[C@@H](C)[C@H]1CC[C@H]2[C@@H]3[C@H](O)[C@H](O)[C@@H]4C[C@H](O)CC[C@]4(C)[C@H]3CC[C@]12C [SCUT1-6] | 0.06 (≈ 0.107 µM) | 2 (≈ 3.56 µM) | 0.25 (≈ 0.445 µM) | 4 (≈ 7.12 µM) | 8 (≈ 14.2 µM) | 8 (≈ 14.2 µM) | 16 (≈ 28.5 µM) | 8 number of mice | 10 number of mice | 10 (10) number of mice | 10 (10) number of mice | 8 number of mice | 10 number of mice | 7 number of mice | 10 number of mice | 5 number of mice | 10 number of mice | 6 number of mice | 10 number of mice | 5 number of mice | promotion of inhibitory activity against Clostridioides difficile relative to metronidazole ([1]; at the same dosage, versus metronidazole): more than 50 times; inhibitory effect on Clostridioides difficile (ATCC 43255), in words [1]: particularly prominent; number of surviving mice ([8]; Day 9, 50 mg/kg): 10 number of mice; changes in mouse body weights ([8]; during drug treatment from Day 3, 50 mg/kg): continued to decrease until the third day of drug treatment (Day 5) |
| C[C@H](CCC(=O)O)[C@H]1CC[C@H]2[C@@H]3[C@@H](O)C[C@@H]4C[C@H](O)CC[C@]4(C)[C@H]3CC[C@]12C [UDCA, ursodeoxycholic acid, reference compound] | 16 (≈ 40.8 µM) | > 32 | > 32 | > 32 | > 128 | > 128 | > 32 | 9 number of mice | 10 number of mice | 9 number of mice | 10 number of mice | 7 number of mice | 10 number of mice | 6 number of mice | 10 number of mice | 4 number of mice | 10 number of mice | 5 number of mice | 10 number of mice | 5 number of mice | number of surviving mice ([8]; Day 9, 50 mg/kg): 10 number of mice |
